We go through 5 compounds from patent US8710064B2, “2-aryl-4-quinazolinones and their pharmaceutical compositions” (China Medical University, priority 2011, dated 2014).

Series [1] has as its system C6 glioma cells. The experiment in a line: G1 synchronized by Ara-C, flow cytometry. The class given is cell-based, rat. As to conditions: 41.6 nM Ara-C for 12 hours. The procedure:
At indicated time points (0, 6, 12 and 24 hr), >10^6 cells were collected and fixed in 70% ethanol over 1 hour at −20° C. After staining with PI as described, DNA content of ten thousand cells was analyzed by flow cytometry.
To investigate the influence of MJ-66 on normal glia such as human glia cell line SVGP12 and rat primary glia cells, cells were treated with different concentrations of MJ-66 in vitro (0.00625, 0.0125, 0.025, 0.05, 0.1 and 1 μM) for different time durations (0, 6, 12 and 24 hours) and the cell viability was assessed by MTS assay. Cells alone or treated with DMSO were used as control. […] However, most glia cells in animals are static and their proliferation rate is almost silent. Therefore, cytosine arabinoside (Ara-C), a DNA synthesis inhibitor, was further used to inhibit glioma cell proliferation and glioma cells were then treated with MJ-66 or DMSO as described in “General materials and methods”. Specifically, after C6 glioma cells were treated with 41.6 nM Ara-C for 12 hours, and then treated with solvent (DMSO) or 60 nM MJ-66 for 0, 6, 12 and 24 hours, the cell cycle distributions and DNA content of the cells were monitored by flow cytometry with propidium iodide staining C6 glioma cells treated with 41.6 nM Ara-C for 12 hours (12 hr) were detected by flow cytometry with propidium iodide staining as control.
(Flow cytometry measures light scatter and fluorescence of single cells or particles in a stream.)

The subject of series [2] is M21. As to the kind of experiment: trypan blue exclusion assay, M21 cells. It counts as cell-based. As to conditions: Homo sapiens; M21 skin cancer; trypan blue exclusion assay; read-out: IC50 M21. The procedure: M21 cell line (human malignant melanoma) was provided by Dr. Feng-Yao Tang (China Medical University, Taiwan). Cells were grown in monolayer culture in RPMI-1640 medium, Eagle's minimum essential medium or Dulbecco's modified Eagles medium (Invitrogen Corporation, Grand Island, N.Y., USA) containing 10% fetal bovine serum (FBS; HyClone, Logan, Utah, USA), 100 U/ml penicillin and 100 μg/ml streptomycin (Gibco BRL, Rockville, Md., USA).
(§1) Cell viability was also determined by trypan-blue exclusion assay. Cells were seeded in 6-well plates (2×10^4/well) for trypan blue exclusion assay, and incubated for 24 hours at 37° C. Culture medium containing test compound or DMSO (0.006%) was added to each well, and cells were incubated at 37° C. At indicated time points (0, 24, 48, 72 and 96 hr), cells were suspended with 0.05% trypsin-EDTA, and stained with trypan-blue dye (0.4%) (Sigma). The cell viability was evaluated by the percentage of death relative to the total cell, and cell growth curve was determined by number of live cells relative to the total number of cells.
(§2) The anti-proliferation effects of Compounds 17-31 on M21, CH27, H460, Hep3B and HSC-3 cells were evaluated by the trypan blue exclusion assay.

Series [3] has as its system Hep3B. As to the kind of experiment: trypan blue exclusion assay, Hep3B cells. The class given is cell-based. To be noted: Hep3B human hepatoma. The procedure: (§3) Hep3B (human hepatocellular carcinoma) and H460 (lung non-small carcinoma) cells were grown in monolayer culture in Dulbecco's modified Eagle's medium (DMEM) (Life Technologies, Rockville, Md., USA) containing 5% fetal bovine serum (HyClone, Logan, Utah, USA), 100 U/ml penicillin and 100 μg/ml streptomycin (Gibco BRL, Rockville, Md., USA) and 2 mM glutamine (Merck, Darmstadt, Germany).
as §1, §2

Series [4] deals with U87 human glioma cell lines. The experiment in a line: MTS cell viability assay, U87 glioma cells. The class given is cell-based. As to conditions: 48 hours, mean±SEM, n=3. The protocol: (§4) The human glioma cell lines U87, U251, T98G, U373, and rat glioma cell line RT2 provided by Dr. Michael Hsiao (Genomics Research Center, Academia Sinica, Taiwan) were cultured in Dulbecco's Modified Eagle medium (DMEM) (Caisson) supplemented with 10% fetal bovine serum (FBS) (Sigma-Aldrich), 2 mM L-glutamine (Caisson), 100 U/ml penicillin, and 100 μg/ml streptomycin (Caisson). The rat glioma C6 cell line provided by Dr. Shun-Fen Tzeng (National Cheng Kung University, Taiwan) was cultured in DMEM/F12 (Caisson) supplemented with 10% fetal bovine serum, 2 mM L-glutamine, 100 U/ml penicillin, and 100 μg/ml streptomycin. The human normal glia cell line SVGP12, kindly provided by Dr. Michael Hsiao, was cultured in Minimum Essential Medium (MEM) (Invitrogen) supplemented with 10% fetal bovine serum, 2 mM L-glutamine, 100 U/ml penicillin, and […]. Primary glia cells were prepared by surgery. Cerebral cortices without meninges were dissected from postnatal (P0-P2) Sprague-Dawley (SD, NCKU Laboratory Animal Center) rats and dissociated in 0.05% trypsin-EDTA (Biowest) at 37° C. for 10 min. Culture medium was added and pipetted for several times, and supernatant was removed after a centrifugation at 1,000 rpm for 5 minutes. […]
(§5) Cell proliferation was determined by MTS (tetrazolium compound, 3-(4,5-dimethylthiazol-2-yl)-5-(3-carboxymethoxyphenyl)-2-(4-sulfophenyl)-2H-tetrazolium) assay (Promega). […] The absorbance of soluble formazan was measured at 490 nm with microplate reader (Molecular device). The cell viability was determined by the percentage of the absorption relative to untreated control. […]
(§6) To investigate the effect of 2-aryl-4-quinazolinone in accordance with the present invention on cell proliferation, glioma cell lines were treated with MJ-66, MJ-68, or MJ-78. […] The cell viability of each group was analyzed by MTS assay (mean±SEM, n=3).
On the technique in general: Tetrazolium assays rely on reduction of a dye to a coloured formazan, in cell work by metabolically active cells.

Series [5] relates to C6 rat glioma. The experiment in a line: MTS cell viability assay, C6 glioma cells. The class given is cell-based. To be noted: 48 hours, mean±SEM, n=3. The procedure: as §4, §5, §6
Series [6] deals with CH27. The experiment in a line: trypan blue exclusion assay, CH27 cells. To be noted: CH27 human lung squamous carcinoma. It counts as cell-based. The protocol:
CH27 cells (Human lung squamous carcinoma) were grown in monolayer culture in Dulbecco's modified Eagle's medium (DMEM; Life Technologies, Rockville, Md., USA) containing 5% FBS (HyClone, Logan, Utah, USA), 100 U/ml penicillin, […] streptomycin (Gibco BRL, Rockville, Md., USA) and 2 mM glutamine (Merck, Darmstadt, Germany).
as §1, §2

The subject of series [7] is H460. The experiment in a line: trypan blue exclusion assay, H460 cells. The class given is cell-based. As to conditions: NCI-H460, H460 human non-small cell lung cancer. The protocol: as §3, §1, §2
The subject of series [8] is HSC-3. The experiment in a line: trypan blue exclusion assay, HSC-3 cells. The class given is cell-based, human. To be noted: HSC-3 human squamous carcinoma; trypan blue exclusion assay. The protocol:
The HSC-3 (human oral squamous cell carcinoma) were cultured in 1:1 Dulbecco's Modified Eagle's Medium (DMEM) and Ham's Nutrient Mixture F-12, containing 10% FBS (HyClone, Logan, Utah, USA), 100 U/ml penicillin, 100 μg/ml streptomycin (Gibco BRL, Rockville, Md., USA) and 2 mM glutamine (Merck, Darmstadt, Germany).
as §1, §2

Series [9] has as its system M21, CH27, H460, Hep3B and HSC-3 cells. The experiment in a line: trypan blue exclusion assay, cancer cell panel (summary). As to conditions: summary of Table 2. The class given is cell-based. The protocol: as §1, §2

Regarding `Nc1ccn([C@@H]2O[C@H](CO)[C@@H](O)[C@@H]2O)c(=O)n1` [Ara-C, cytosine arabinoside, reference compound], in [1], the “cell cycle state of C6 glioma cells” value is given as “G1 arrest”.

For the compound `O=c1[nH]c(-c2csc3ccccc23)nc2ccc(N3CCCC3)cc12` [Compound 25, 6-(Pyrrolidin-1-yl)-2-(benzo[b]thiophen-3-yl)quinazolin-4-one], the melting point (as a rule, the temperature of the solid-liquid transition) is greater than 300 °C. Further, in series [2], the IC50 (in general, the concentration at which inhibition is half-maximal) is greater than 10000 nM. The half-inhibitory concentration (IC50) in [3] is greater than 10 µM. Also, the IC50 in series [4] was greater than 1000 nM. The same compound displayed an IC50 in [5] greater than 1000 nM. In series [6], this compound had an IC50 greater than 10000 nM. In addition, in series [7], the IC50 was greater than 10000 nM. This compound registered an IC50 in [8] greater than 10000 nM.

For the compound `O=c1[nH]c(-c2cccc3ccccc23)nc2ccc(N3CCCCC3)cc12` [Compound 26, 6-(Piperidin-1-yl)-2-(naphthalen-1-yl)quinazolin-4-one], the IC50 in series [2] is 1590 nM; in [3] it was 7.24 µM; in series [4], 540 ± 240 nM; in series [5], 470 ± 160 nM; in series [6], 362 nM; in series [7], 376 nM. Besides, half-maximal inhibition in series [8] (IC50) was put at 1730 nM. The “cytotoxic effects toward cancer cells” value in [9] was “exhibited cytotoxic effects”.

For the compound `O=c1[nH]c(-c2c[nH]c3ccccc23)nc2ccc(N3CCCCC3)cc12` [Compound 27, 6-(Piperidin-1-yl)-2-(1H-indol-3-yl)quinazolin-4-one], the IC50 is 8990 nM in series [2]; 5.65 µM in series [3]; greater than 10000 nM in [6]; 6860 nM in series [7]; greater than 10000 nM in series [8]. For the same compound, the “cytotoxic effects toward cancer cells” value in [9] is on record as “exhibited cytotoxic effects”.

With `O=c1[nH]c(-c2cccc3ccccc23)nc2ccc(N3CCOCC3)cc12` [Compound 29, 6-(Morpholino)-2-(naphthalen-1-yl)quinazolin-4-one], the IC50 in [2] was 2330 nM; in series [3], 1.06 µM; in series [6], 597 nM; in series [7], 432 nM; in series [8], 614 nM. Besides, the “cytotoxic effects toward cancer cells” value in [9] is listed as “exhibited cytotoxic effects”.
